Experimental data published in ChEMBL document CHEMBL1143022, “Free radical trapping properties of several ethyl-substituted derivatives of 5-ethoxycarbonyl-5-methyl-1-pyrroline N-oxide (EMPO)” (Bioorg Med Chem, 2007).

Assay: Partition coefficient, log P of the compound
Format: physicochemical
Conditions: octanol/water

Compound | logP
CCOC(=O)C1(C)CCC=[N+]1[O-] (configuration not stated) | 0.15
CCOC(=O)[C@]1(C)C[C@@H](CC)C=[N+]1[O-] (relative stereo) | 1.67
CCOC(=O)[C@]1(C)C[C@H](CC)C=[N+]1[O-] (relative stereo) | 1.38
CCOC(=O)C1(CC)C(C)CC=[N+]1[O-] (mixture of isomers) | 1.07
CCOC(=O)C1(C)C(CC)CC=[N+]1[O-] (mixture of isomers) | 1.34

The next lines start with the values.

logP | Compound
1.48 | CCOC(=O)[C@@]1(CC)C[C@H](C)C=[N+]1[O-] (relative stereo)
1.34 | CCOC(=O)[C@@]1(CC)C[C@@H](C)C=[N+]1[O-] (relative stereo)
